How the values were obtained:
[1] = tested on: KRas Q61H mutant; assay: Ras GTP Binding Domain Inhibition Assay (Ras Superfamily Assay); conditions: 20 μM compound; for KRas Q61H mutant + SOS: % inh.: with SOS; for KRas Q61H mutant: % inh.: without SOS
Outline: (§1)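 His-tagged GTPases immobilised on nickel-coated plates, pre-incubated with compound (20 μM single point, or serial dilution for IC50) 3 h at room temperature, with or without 10-30 μg/mL Sos (residues 556-1049) in the final hour. Bound Cy3- or Cy5-GTP (100 nM, 45 min) measured by fluorescence after washing.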

[2] = tested on: KRas G12D mutant; assay: as above; conditions: 20 μM compound; for KRas G12D mutant + SOS: % inh.: with SOS; for KRas G12D mutant: % inh.: without SOS
Outline: as §1

[3] = target: T1, Rho-A (Homo sapiens, UniProt P61586); assay: as above; conditions: read-out: Rho-A: % inh..
T1 construct: made in house
Outline: as §1

[4] = tested on: KRas wild type; assay: as above; conditions: 20 μM compound; for KRas wild type + SOS: % inh.: with SOS; for KRas wild type: % inh.: without SOS
Outline: as §1

[5] = target: T2, Rac-1 (Homo sapiens, UniProt P63000); assay: as above; conditions: read-out: Rac-1: % inh.
T2 construct: made in house
Outline: as §1

[6] = tested on: KRas G12C mutant; assay: as above; conditions: 20 μM compound; for KRas G12C mutant + SOS: % inh.: with SOS; for KRas G12C mutant: % inh.: without SOS
Outline: as §1

[7] = tested on: Erk1/2 phosphorylation; assay: Erk1/2 Phosphorylation Assay (western blot), Panc-1; format: cell-based, human; conditions: at 10 μM, * = activation
Outline: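 Phospho-Erk1/2 (Thr202/Tyr204) was detected by western blot in lysates of Panc-1 cells (KRas G12D). These had 6 h, 37° C exposure to 10 μM compound or a dilution series for IC50, in 0.3% DMSO. Cells were either starved overnight in 0.5% FBS with a 15-min 1.5 ng/ml EGF pulse, or kept unstimulated in 10% FBS.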

[8] = tested on: TNF-alpha; assay: TNF-alpha Quantification Assay (ELISA), LPS-stimulated RAW 264.7; format: cell-based; conditions: Mus musculus, RAW264.7; at 10 μM; read-out: TNFα: % inh.

T1 sequence (P61586 whole entry): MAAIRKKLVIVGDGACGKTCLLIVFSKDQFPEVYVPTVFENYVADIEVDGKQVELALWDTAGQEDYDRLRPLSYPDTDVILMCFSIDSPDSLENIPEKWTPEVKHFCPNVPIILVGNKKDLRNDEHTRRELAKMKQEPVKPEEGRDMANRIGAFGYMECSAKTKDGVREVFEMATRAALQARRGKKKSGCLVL

Row | Compound | KRas Q61H mutant + SOS: % inh. [1] | KRas Q61H mutant: % inh. [1] | KRas G12D mutant + SOS: % inh. [2] | KRas G12D mutant: % inh. [2] | inhibition at 20 µM [3] [%] | KRas wild type + SOS: % inh. [4] | KRas wild type: % inh. [4] | inhibition at 20 µM [5] [%] | KRas G12C mutant + SOS: % inh. [6] | KRas G12C mutant: % inh. [6] | % inh of Erk1/2 phosphorylation in Panc-1 [7] | inhibition at 10 µM [8] [%]
1 | COCCCNc1nc(-c2nccn2C)nn2cc(-c3cccc(OC)c3Cl)c(-c3ccccc3)c12 [Compound 30, 6-(2-Chloro-3-methoxyphenyl)-N-(3-methoxypropyl)-2-(1-methyl-1H-imidazol-2-yl)-5-phenylpyrrolo[2,1-f][1,2,4]triazin-4-amine] | 0 (0 = 0% inhibition) | 0 (0 = 0% inhibition) | A (A = 1-25% inhibition) | 0 (0 = 0% inhibition) | 1 to 25 | 0 (0 = 0% inhibition) | A (A = 1-25% inhibition) | 0 | 0 (0 = 0% inhibition) | A (A = 1-25% inhibition) | D (85-100% inhibition) | 75 to 100
2 | COCCNc1nc(-c2nccn2C)nn2cc(-c3ccn(C(C)C)n3)c(C(C)C)c12 [Compound 35, 5-Isopropyl-6-(1-isopropyl-1H-pyrazol-3-yl)-N-(2-methoxyethyl)-2-(1-methyl-1H-imidazol-2-yl)pyrrolo[2,1-f][1,2,4]triazin-4-amine] | A (A = 1-25% inhibition) | A (A = 1-25% inhibition) | 0 (0 = 0% inhibition) | 0 (0 = 0% inhibition) | 1 to 25 | A (A = 1-25% inhibition) | A (A = 1-25% inhibition) | 0 | 0 (0 = 0% inhibition) | A (A = 1-25% inhibition) | 0 (0% inhibition) | 0
3 | COc1cccc(Nc2nc(-c3nccn3C)nn3ccc(C)c23)n1 [Compound 38, N-(6-Methoxypyridin-2-yl)-5-methyl-2-(1-methyl-1H-imidazol-2-yl)pyrrolo[2,1-f][1,2,4]triazin-4-amine] | 0 (0 = 0% inhibition) | 0 (0 = 0% inhibition) | 0 (0 = 0% inhibition) | 0 (0 = 0% inhibition) | 1 to 25 | 0 (0 = 0% inhibition) | 0 (0 = 0% inhibition) | 0 | 0 (0 = 0% inhibition) | 0 (0 = 0% inhibition) | 0 (0% inhibition) | 1 to 24
4 | COc1cccc(Nc2nc(-c3nccn3C)nn3ccc(-c4ccccc4)c23)n1 [Compound 40, N-(6-Methoxypyridin-2-yl)-2-(1-methyl-1H-imidazol-2-yl)-5-phenylpyrrolo[2,1-f][1,2,4]triazin-4-amine] | A (A = 1-25% inhibition) | 0 (0 = 0% inhibition) | 0 (0 = 0% inhibition) | 0 (0 = 0% inhibition) | 1 to 25 | 0 (0 = 0% inhibition) | 0 (0 = 0% inhibition) | 1 to 25 | 0 (0 = 0% inhibition) | 0 (0 = 0% inhibition) | 0 (0% inhibition) | 25 to 49
5 | Cn1ccnc1-c1nc(OCCN2CCCC2)c2c(-c3ccccc3)ccn2n1 [Compound 41, 2-(1-Methyl-1H-imidazol-2-yl)-5-phenyl-4-(2-(pyrrolidin-1-yl)ethoxy)pyrrolo[2,1-f][1,2,4]triazine] | 0 (0 = 0% inhibition) | 0 (0 = 0% inhibition) | A (A = 1-25% inhibition) | 0 (0 = 0% inhibition) | 0 | 0 (0 = 0% inhibition) | A (A = 1-25% inhibition) | 0 | 0 (0 = 0% inhibition) | 0 (0 = 0% inhibition) | 0 (0% inhibition) | 1 to 24
6 | COc1cccc(-c2cn3nc(-c4nccn4C)nc(N[C@H]4C[C@H](OC)C4)c3c2-c2ccccn2)c1F [Compound 45, 6-(2-Fluoro-3-methoxyphenyl)-N-((1r,3r)-3-methoxycyclobutyl)-2-(1-methyl-1H-imidazol-2-yl)-5-(pyridin-2-yl)pyrrolo[2,1-f][1,2,4]triazin-4-amine] | D (D = 76-100% inhibition) | D (D = 76-100% inhibition) | A (A = 1-25% inhibition) | B (B = 26-49% inhibition) | 50 to 75 | B (B = 26-49% inhibition) | B (B = 26-49% inhibition) | 50 to 75 | A (A = 1-25% inhibition) | B (B = 26-49% inhibition) | 0 (0% inhibition) | 75 to 100

Further lines, with some results ahead:

Row | KRas Q61H mutant + SOS: % inh. [1] | KRas Q61H mutant: % inh. [1] | KRas G12D mutant + SOS: % inh. [2] | KRas G12D mutant: % inh. [2] | inhibition at 20 µM [3] [%] | KRas wild type + SOS: % inh. [4] | KRas wild type: % inh. [4] | inhibition at 20 µM [5] [%] | KRas G12C mutant + SOS: % inh. [6] | KRas G12C mutant: % inh. [6] | Compound | % inh of Erk1/2 phosphorylation in Panc-1 [7] | inhibition at 10 µM [8] [%]
7 | A (A = 1-25% inhibition) | 0 (0 = 0% inhibition) | B (B = 26-49% inhibition) | A (A = 1-25% inhibition) | 1 to 25 | 0 (0 = 0% inhibition) | A (A = 1-25% inhibition) | 1 to 25 | 0 (0 = 0% inhibition) | A (A = 1-25% inhibition) | COc1cccc(-c2cn3nc(-c4nccn4C)nc(N[C@H]4C[C@@H](OC)C4)c3c2-c2ccccc2)c1Cl [Compound 31, 6-(2-Chloro-3-methoxyphenyl)-N-((1s,3s)-3-methoxycyclobutyl)-2-(1-methyl-1H-imidazol-2-yl)-5-phenylpyrrolo[2,1-f][1,2,4]triazin-4-amine] | D (85-100% inhibition) | 75 to 100
8 | A (A = 1-25% inhibition) | A (A = 1-25% inhibition) | 0 (0 = 0% inhibition) | 0 (0 = 0% inhibition) | 1 to 25 | 0 (0 = 0% inhibition) | A (A = 1-25% inhibition) | 0 | 0 (0 = 0% inhibition) | 0 (0 = 0% inhibition) | COc1cccc(-c2cn3nc(-c4nccn4C)nc(N[C@H]4C[C@H](OC)C4)c3c2-c2ccccc2)c1Cl [Compound 32, 6-(2-Chloro-3-methoxyphenyl)-N-((1r,3r)-3-methoxycyclobutyl)-2-(1-methyl-1H-imidazol-2-yl)-5-phenylpyrrolo[2,1-f][1,2,4]triazin-4-amine] | D (85-100% inhibition) | 75 to 100
9 | B (B = 26-49% inhibition) | B (B = 26-49% inhibition) | 0 (0 = 0% inhibition) | 0 (0 = 0% inhibition) | 1 to 25 | 0 (0 = 0% inhibition) | 0 (0 = 0% inhibition) | 0 | 0 (0 = 0% inhibition) | 0 (0 = 0% inhibition) | COc1cccc(-c2cn3nc(-c4nccn4C)nc(N[C@H]4C[C@H](OC)C4)c3c2-c2ccccc2)c1F [Compound 42, 6-(2-Fluoro-3-methoxyphenyl)-N-((1r,3r)-3-methoxycyclobutyl)-2-(1-methyl-1H-imidazol-2-yl)-5-phenylpyrrolo[2,1-f][1,2,4]triazin-4-amine] | D (85-100% inhibition) | 75 to 100
10 | D (D = 76-100% inhibition) | D (D = 76-100% inhibition) | C (C = 50-75% inhibition) | B (B = 26-49% inhibition) | 1 to 25 | B (B = 26-49% inhibition) | 0 (0 = 0% inhibition) | 26 to 49 | B (B = 26-49% inhibition) | 0 (0 = 0% inhibition) | COCCO[C@H]1C[C@H](Nc2nc(-c3nccn3C)nn3cc(-c4cccc(OC)c4F)c(-c4ccccc4)c23)C1 [Compound 44, 6-(2-Fluoro-3-methoxyphenyl)-N-((1r,3r)-3-(2-methoxyethoxy)cyclobutyl)-2-(1-methyl-1H-imidazol-2-yl)-5-phenylpyrrolo[2,1-f][1,2,4]triazin-4-amine] | B (26-49% inhibition) | 1 to 24

From patent US12459951B2, “Compounds that interact with RAS superfamily proteins for treatment of cancers, inflammatory diseases, rasopathies, and fibrotic disease” (SHY Therapeutics, LLC, priority 2022, dated 2025)
